The record followed here is patent US10703736B2, “Configurational stereoisomer of bromadiolone, composition and rodenticide bait comprising same, and method for controlling target rodent pests” (priority 2015, dated 2020).

The structures appear in SMILES notation. “Also recorded” adds a separate entry of the source.

Data set [1] is classed as in vivo, rat. The following applies: Sprague-Dawley rats, mixture D1,2 56% / D3,4 44%, about 13 mg bromadiolone per kg per os, liver on D1, D3, D7; FIG. 2. How it is done: (§1) About 0.525 g (+0.025 g) of rat liver is weighed out accurately and placed in a 50 mL polypropylene tube. 10 mL of acetone are added and the suspension is homogenized using an Ultra-Turrax® homogenizer/disperser for a time of about 30 seconds. The homogenizer/disperser shaft is rinsed with hot water and then twice with 20 mL of acetone in a polypropylene tube. The homogenate is centrifuged for 5 minutes at a centrifugation speed of 3000 rpm (revolutions per minute). The supernatant is collected and transferred into a test tube. The sample is subjected to evaporation under a stream of nitrogen (N2) at a temperature of 40° C. so as to form a dry extract.
(§2) 1 mL of acetonitrile is added to the tube containing the dry extract so as to dissolve it. The acetonitrile solution is washed twice successively with 1 mL of hexane. […]
On D1 (D+1), D3 (D+3) and D7 (D+7) after tube feeding, four rats anaesthetized beforehand with isoflurane are euthanized, the liver of the euthanized rats is removed, the bromadiolone is then extracted from the liver and the amount of each of the configurational stereoisomers of bromadiolone is assayed by high-pressure liquid chromatography analysis on a chiral column as described above. The area under the peaks of the chromatogram obtained is measured and each configurational stereoisomer of bromadiolone is quantified by comparison with a calibration curve.

Data set [2] in a line: Hepatic persistence of each configurational stereoisomer in rats tube-fed with a single stereoisomer. It counts as in vivo, rat. As to conditions: liver of rats tube-fed with the single enantiomer at 1.5 mg per kilogram; FIG. 4. How it is done:
as §1, §2
The liver of the rats treated above is removed for the purposes of comparative analysis of the anticoagulant power of the configurational stereoisomers of bromadiolone, the bromadiolone is then extracted from the liver and the amount of each of the configurational stereoisomers of bromadiolone is assayed by high-pressure liquid chromatography analysis on a chiral column as described above. The area under the peaks of the chromatogram obtained is measured and each configurational stereoisomer of bromadiolone is quantified by comparison with a calibration curve. […]

The subject of data set [3] is male laboratory rats (OFA, Sprague-Dawley 200 g). As to the kind of experiment: Anticoagulant power of each configurational stereoisomer: coagulation time (Quick time) of plasma of tube-fed rats. The format is in vivo. As to conditions: 1.5 mg of enantiomer per kilogram of rat by tube feeding on D0; blood on D1, D3, D7, D14; FIG. 3. As for the experimental part:
The following are administered to male laboratory rats (OFA, Sprague-Dawley 200 g) by tube feeding on D0: a composition comprising enantiomer E1 in a proportion of 1.5 mg of said enantiomer E1 per kilogram of rat; or a composition comprising enantiomer E2 in a proportion of 1.5 mg of said enantiomer E2 per kilogram of rat; or a composition comprising enantiomer E3 in a proportion of 1.5 mg of said enantiomer E3 per kilogram of rat; or a composition comprising enantiomer E4 in a proportion of 1.5 mg of said enantiomer E4 per kilogram of rat.
On these rats, blood is collected on D1, D3, D7 and D14 and measurement of the coagulation time (Quick time, expressed in seconds) of the plasma is performed using the “Neoplastine CI Determination of Prothrombin Time” kit (Diagnostica Stago, Asnibre, France) by measurement on a Thrombotimer Option 2 Plus machine (Behnk Electronik, Norderstedt, Germany).

With `O=c1oc2ccccc2c(O)c1C(CC(O)c1ccc(-c2ccc(Br)cc2)cc1)c1ccccc1` (single isomer, unassigned) [enantiomer E1, 3-[3-(4′-bromo[1,1′-biphenyl]-4-yl)-3-hydroxy-1-phenylpropyl]-4-hydroxy-2H-1-benzopyran-2-one], in data set [1], the “persistence in rat liver (hepatic concentration)” value is given as “longest persistence in rat liver of the four enantiomers”. Also, the “hepatic persistence of each enantiomer” value in data set [2] was “highest hepatic persistence among the bromadiolone enantiomers; also recorded: higher than the persistence in the liver of target rodent pests of said enantiomer E2 and higher than the persistence in the liver of target rodent pests of each enantiomer of said diastereoisomer D3,4”. In addition, the “anticoagulant effect / anticoagulant activity (coagulation time, Quick time)” value in data set [3] is “sufficient to maintain an anticoagulant effect up to D7; also recorded: higher anticoagulant activity than the anticoagulant activity of said enantiomer E2 and also higher than the anticoagulant activities of said two enantiomers of said diastereoisomer D3,4”.

For the molecule `O=c1oc2ccccc2c(O)c1C(CC(O)c1ccc(-c2ccc(Br)cc2)cc1)c1ccccc1` (single isomer, unassigned) [diastereoisomer D1,2, 3-[3-(4′-bromo[1,1′-biphenyl]-4-yl)-3-hydroxy-1-phenylpropyl]-4-hydroxy-2H-1-benzopyran-2-one], the “persistence in rat liver (hepatic concentration)” value in data set [1] is “the more persistent in the liver of target rodents”.
